Measurements published in paper PMC8752837, “Structural basis of BAK activation in mitochondrial apoptosis initiation” (Nature Communications, 2022).
Marks after values point to notes of the source that are not given here.

Experiments:
Human BAK-∆TM-His6 (BAK) = molecular target: T1, Human BAK-∆TM-His6 (BAK) (Homo sapiens, UniProt Q16611); assay: Liposome permeabilization assay (ANTS/DPX dye release from LUVs): activation of WT BAK by BH3 peptides;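 for AUC for Experiment-2 (Mean): traces normalized between buffer minimum and 3% CHAPS maximum fluorescence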;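 for AUC for Experiment-3 (Mean): traces normalized between buffer minimum and 3% CHAPS maximum fluorescence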; format: biochemical; set-up: AUC for Experiment-2 (Mean) / AUC for Experiment-3 (Mean) / AUC for Experiment-1 (Mean):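 traces normalized between buffer minimum and 3% CHAPS maximum fluorescence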; details: for AUC for Experiment-1 (Mean) / AUC for Experiment-2 (Mean) / AUC for Experiment-3 (Mean): AUC 0-88 mins of liposome permeabilization; for AUC for Experiment-1 (Mean): Experiment-1, mean of N replicates; for AUC for Experiment-2 (Mean): Experiment-2, mean of N replicates; for AUC for Experiment-3 (Mean): Experiment-3, mean of N replicates; for EC50: Fig. 4e, 50 nM BAK, AUC vs peptide dose (Suppl. Fig. 6b), n = 2 experiments each of n = 3 technical replicates, read-out: EC50 LP
T1 construct: C-terminus truncated recombinant human BAK containing C-terminal 6× histidine tag (MEAS-BAK); made in house; host or cells: E. coli T7 Express pLac I/Y
T1 sequence (Q16611 1-186 limits assumed): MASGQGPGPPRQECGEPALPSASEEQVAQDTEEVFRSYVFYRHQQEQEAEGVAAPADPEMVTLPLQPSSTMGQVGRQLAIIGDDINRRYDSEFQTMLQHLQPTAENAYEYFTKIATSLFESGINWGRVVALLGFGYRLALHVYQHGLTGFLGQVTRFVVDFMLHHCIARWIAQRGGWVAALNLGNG
Experimental: We performed liposome permeabilization assays as previously described[43]–[46]. […] We mixed the lipid film in ANTS/DPX solution by vortexing and sonication (~15 min) followed by extrusion through polycarbonate membrane of 2 μm pore size (Avanti Polar lipids) to generate homogenous large unilamellar vesicles (LUVs). We separated LUVs from free ANTS/DPX by S500 size exclusion chromatography and stored them at 4 °C in the dark. We prepared peptide and protein dilutions in 96-well black flat bottom plates (Costar) kept on ice. […] We quantified liposome permabilization by integrating area under curve (AUC) of normalized traces based on the Simpson’s equation, and analyzed that data in Excel and GraphPad Prism. AUC measurements reflect the kinetic and extent of liposome permeabilization and provide quantitative means for comparison between different experimental conditions (e.g., BAK mutants with gross or partial variation in activity).

GST-BAK = molecular target: T2, GST-BAK (Homo sapiens, UniProt Q16611); assay: Competitive fluorescence polarization assay (displacement of BID BH3 SAHB-F); format: binding; details: displacement of 10 nM BID BH3 SAHB-fluorescein from 1 µM GST-BAK; peptide 500−0.2 µM; 60 min RT; mean ± SD, n = 9 experiments; read-out: IC50 FP
T2 construct: made in house
T2 sequence (Q16611 1-211): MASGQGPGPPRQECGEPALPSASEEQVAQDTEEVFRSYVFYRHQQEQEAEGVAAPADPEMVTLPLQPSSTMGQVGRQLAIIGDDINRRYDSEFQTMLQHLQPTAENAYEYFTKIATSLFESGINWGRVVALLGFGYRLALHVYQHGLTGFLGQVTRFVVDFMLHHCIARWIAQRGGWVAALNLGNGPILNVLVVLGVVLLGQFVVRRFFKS
From the text: We also tested the monosubstituted peptides in competitive fluorescence polarization (FP) binding assays, which measure displacement from GST-BAK of BID BH3 stabilized alpha helix of BCL-2 proteins (SAHB) C-terminally tagged with fluorescein and thus informs on peptide binding affinity.
We carried out fluorescence polarization assays, measuring the displacement of the fluorescent peptide BID BH3 SAHB-F from GST-BAK, in 384-well Greiner black polystyrene plates with flat bottom (Sigma-Aldrich). Master mix consisted of 50 mM Tris-HCl pH 7.5, 50 mM KCl, 0.1 mg/mL BSA, 2 mM DTT, 0.005% Tween-20, 10 nM BID BH3 SAHB-F, and 1 µM GST-BAK. We pin transferred peptides using Biomek FX (Beckman Coulter Life Sciences, IN) to achieve final concentration of 500−0.2 µM in 20 µL final volume. We gently centrifuged plates to remove air bubbles for 1 min at 1000 rpm, and incubated them for 60 min at RT. […] Free peptide controls in each plate consisted of only BID BH3 SAHB-F and bound peptide controls containing BID BH3 SAHB-F + GST-BAK. We derived Z’-values using the equation [1 − 3(stdev^L + stdev^H)]/(average^H − average^L), where L is the free peptide control and H is the bound peptide control. […] We processed and visualized data using the software Robust Investigation of Screening Experiments (RISE) developed in house in the Pipeline Pilot platform (Accelrys, v.8.5.0). We performed at least three independent dose-response experiments for each peptide. We estimated IC50 values in RISE and GraphPad Prism v.8.0a.

Row | AUC for Experiment-1 (Mean) (Human BAK-∆TM-His6 (BAK); 1 μM peptide + 50 nM BAK) | AUC for Experiment-2 (Mean) (Human BAK-∆TM-His6 (BAK); 1 μM peptide + 50 nM BAK) | AUC for Experiment-3 (Mean) (Human BAK-∆TM-His6 (BAK); 1 μM peptide + 50 nM BAK) | AUC for Experiment-1 (Mean) (Human BAK-∆TM-His6 (BAK); 50 μM peptide + 50 nM BAK) | AUC for Experiment-2 (Mean) (Human BAK-∆TM-His6 (BAK); 50 μM peptide + 50 nM BAK) | AUC for Experiment-3 (Mean) (Human BAK-∆TM-His6 (BAK); 50 μM peptide + 50 nM BAK) | EC50 (Human BAK-∆TM-His6 (BAK)) [µM] | IC50 (GST-BAK) [µM] | Substance
1 | 15.025 | 10.6297 | 8.405 | 12.2448 | 5.78* | 12.8163 | 0.242 ± 0.0663 | 27.4 ± 16.4 | Ac-EDIWRNIARHLAQVGDSMDRSI-NH2 [W(0')]
2 | 14.3256 | 13.2515 | 14.8765 | 13.3871 | 11.7489 | 12.1647 | 0.365 ± 0.0228 | 10.8 ± 5.5 | Ac-EDWIRNIARHLAQVGDSMDRSI-NH2 [W(0)]
